Measured values taken from patent US9951226B2, “Compound based on cyanine scaffold for diagnosis sepsis by selectively detect glutathione” (EWHA UNIVERSITY—INDUSTRY COLLABORATION FOUNDATION, priority 2014, dated 2018).

Legend:
[1] = test system: neutrophils of peritoneal cells; assay: Capacity of diagnosing sepsis: FACS of neutrophils of peritoneal cells from CLP sepsis mouse; assay type: cell-based; conditions: 8 hours, 10 μM compound
Method: According to a reference (J Vis Exp. 2011 May 7; (51). pii: 2860. doi: 10.3791/2860), C57BL/6 mouse (7˜8 weeks old, female, Jackson Laboratory) was induced with sepsis by performing CLP (cecal ligation and puncture). 8 hours later, peritoneal cells were extracted from the mouse. The cells were centrifuged and reacted to the neutrophil marker Ly6G (eFluor®450, eBioscience, Cat No. 48-5931) and 10 μM of the compound prepared in Example 2 at room temperature. 25 minutes later, 1 mL of 3% fetal bovine serum (FBS) was added thereto, followed by centrifugation at 3000 rpm for 5 minutes to wash the cells. The cells were resuspended in […] of HEPES (4-(2-hydroxyethyl)piperazine-1-ethanesulfonic acid) buffer (10 mM, pH=7.4), followed by FACS (Fluorescence Activated Cell Sorting) using the data analysis software FlowJo to observe the peaks (The setting for Alexa flour 700 fluorescence was hired, BD FACSVerse™).

[2] = test system: RAW 264.7 cells; assay: Changes of glutathione concentration in the presence of an oxidant (peroxynitrite), RAW 264.7 cells; assay type: cell-based; conditions: for red fluorescence under confocal laser scanning microscope: 20 μM compound
Method: RAW 264.7 cells (macrophage cell line, Korea Cell Line Bank) were cultured in RPMI 1640 (Roswell Park Memorial Institute) supplemented with 10% heat-inactivated fetal bovine serum (FBS), 100 U/mL penicillin, and 100 U/mL streptomycin in a 37° C. 5% CO2 incubator.
RAW 264.7 cells displaying the characteristics of generating ROS (Reactive Oxygen Species) or RNS (Reactive Nitrogen Species) were treated with 1 μg/mL of lipopolysaccharide (LPS) for 20 minutes, 50 ng/mL of interferon-γ for 16 hours, and 20 μM of phorbol 12-myristate 13-acetate (PMA) for 20 minutes in order to induce the generation of endogenous feroxynitrite having the characteristics of an oxidant. Then, the cells were seeded in 35-mm glass bottomed dishes at the density of 3×10^5 cells/dish in 1640 medium. 24 hours later, the compound prepared in Example 2 was treated thereto at the concentration of 20 μM for 20 minutes. The cells were washed with DPBS (Dulbecco's Phosphate Buffered Saline) three times, followed by imaging with confocal laser scanning microscope (Fluoview 1200, Olympus, Japan). At this time, the emitting filter with the excitation wavelength of 635 nm and the band-path (BP) of 655˜755 nm was used.

[3] = Absorption and fluorescence spectrum over the time after reaction with glutathione; assay type: biochemical; conditions: 10 μM compound, 100 μM glutathione, HEPES pH 7.4, 10% DMSO
Method: 10 μM of the compound prepared in Example 2 and 100 μM of glutathione were added to HEPES (4-(2-hydroxyethyl)piperazine-1-ethanesulfonic acid) buffer (10 mM, pH=7.4) containing 10% dimethylsulfoxide (DMSO), followed by observation of absorption spectrum at 25° C. using UV-vis sepctra (Scinco 3000 spectrophotometer, 1 cm quartz cell) over the time. The results are shown in FIG. 8 (spectrum was photographed every 0.5 minute).
The following experiment was performed by the same manner as described in Experimental Example <5-1> except that fluorescence spectrum was observed by using RF-5310/PC fluorescence spectrometer (Shimada, 1 cm quartz cell) instead of observing absorption spectrum via UV-vis sepctra (Scinco 3000 spectrophotometer, 1 cm quartz cell) (λex=730 nm, λem=736 nm, slit:10/10 nm). The results are shown in FIG. 9 (spectrum was photographed every 0.5 minute).

[4] = test system: HeLa cells; assay: Detection of intracellular biothiol in HeLa cells, confocal laser scanning microscope; assay type: cell-based, human; conditions: 10 μM compound
Method: HeLa cells (human adenocarcinoma cells, Korea Cell Line Bank) were cultured in RPMI 1640 (Roswell Park Memorial Institute) supplemented with 10% heat-inactivated fetal bovine serum (FBS), 100 U/mL penicillin, and 100 U/mL streptomycin in a 37° C. 5% CO2 incubator. The cells were either treated or not treated with 1 mM of N-methylmaleimide (NMM) known as a thiol blocker for 20 minutes. 100 μM of each amino acid containing thiol group (R—SH) such as cysteine, homocysteine, and glutathione was added thereto. Then, the cells were seeded in 35-mm glass bottomed dishes at the density of 3×10^5 cells/dish in 1640 medium. 24 hours later, 10 μM of the compound prepared in Example 1 was added thereto, followed by culture at 37° C. for 20 minutes. The cells were washed with DPBS (Dulbecco's Phosphate Buffered Saline) twice to eliminate the remaining compound, followed by imaging with confocal laser scanning microscope (Fluoview 1200, Olympus, Japan). At this time, the emitting filter with the excitation wavelength of 635 nm and the band-path (BP) of 655˜755 nm was used.

[5] = test system: C57BL/6 mouse; assay: Detection of glutathione in a mouse model with acetaminophen (APAP), IVIS imaging; assay type: in vivo
Method: 200 μL of HEPES (4-(2-hydroxyethyl)piperazine-1-ethanesulfonic acid) buffer (10 mM, pH=7.4) containing 300 mg/kg of acetaminophen (APAP) known as a pain killer was administered to each C57BL/6 mouse (7˜8 weeks old, female, Jackson Laboratory) via intravenous injection. The said APAP works as a pain killer in vivo when administered at a proper dose, but when treated at over-dose, it can damage organs and also reduce in vivo glutathione. 20 minutes later, 200 μL of HEPES (4-(2-hydroxyethyl)piperazine-1-ethanesulfonic acid) buffer (10 mM, pH=7.4) containing 50 mM of the compound prepared in Example 2 was administered to the mouse via intravenous injection. 20 minutes later, the strength of fluorescence was observed by using the epifluorescence mode of In Vivo Imaging System (IVIS) spectrum (Caliper LifeSciences, USA) equipped with the filter having the wavelengths of 675 nm and 720 nm [the strength of fluorescence was measured by Living Image Software 4.3.1 (Caliper Life Sciences, USA)].

CCCN1/C(=C/C=C2\CCCC(/C=C/C3=[N+](CCC)c4ccccc4C3(C)C)=C2N2CCN(S(=O)(=O)c3cccc4c(N(C)C)cccc34)CC2)C(C)(C)c2ccccc21.[I-] [Example 2, 2-((E)-2-((E)-3-((E)-2-(3,3-dimethyl-1-propylindolin-2-ylidene)ethylidene)-2-(4-(5-(dimethylamino)naphthalene-1-ylsulfonyl)piperazine-1-yl)cyclohex-1-enyl)binyl)-3,3-dimethyl-1-propyl-3H-indolium iodide]
glutathione level in neutrophils detected by the compound (FACS), sepsis mouse compared with normal mouse [1]: reduced
red fluorescence under confocal laser scanning microscope ([2]; RAW 264.7 cells with induced peroxynitrite (LPS, interferon-γ, PMA)): red fluorescence was not observed
red fluorescence under confocal laser scanning microscope ([2]; RAW 264.7 cells, 20 minutes): strong red fluorescence
reaction to oxidized glutathione, glutathione disulfide (GSSG) ([2]; RAW 264.7 cells, peroxynitrite): did not react
time to maximum fluorescence signal at 736 nm [3]: ≤ 15 min
time to minimum absorption signal at 750 nm ([3]; 25° C.): ≤ 15 min
red fluorescence under confocal laser scanning microscope ([4]; HeLa cells pre-treated with NMM, 100 μM cysteine added): red fluorescence was not detected
red fluorescence under confocal laser scanning microscope ([4]; HeLa cells pre-treated with NMM, 100 μM glutathione added): strong red fluorescence was observed
red fluorescence under confocal laser scanning microscope ([4]; HeLa cells pre-treated with NMM, 100 μM homocysteine added): red fluorescence was not detected
red fluorescence under confocal laser scanning microscope ([4]; HeLa cells pre-treated with thiol blocker NMM 1 mM): red fluorescence was not observed
red fluorescence under confocal laser scanning microscope ([4]; HeLa cells, 20 minutes): strong red fluorescence was observed
red fluorescence of the mouse, IVIS spectrum ([5]; mouse treated with acetaminophen (APAP) 300 mg/kg together with the compound): red fluorescence was not observed
red fluorescence in liver, kidney, lung, and spleen, IVIS spectrum ([5]; mouse treated with acetaminophen (APAP) together with the compound): red fluorescence was not observed
red fluorescence in liver, kidney, lung, and spleen, IVIS spectrum ([5]; mouse treated with the compound alone): strong red fluorescence was observed
red fluorescence of the mouse, IVIS spectrum ([5]; mouse treated with the compound alone, intravenous injection, 20 minutes): strong red fluorescence was observed
